Data reported in patent US20230062119A1, “USE OF BIOMARKERS IN IDENTIFYING PATIENTS THAT WILL BE RESPONSIVE TO TREATMENT WITH A PRMT5 INHIBITOR” (Merck Sharp & Dohme LLC, priority 2019, published 2023).
Where a name gives a salt, the structure may show the parent alone. Read-outs that look alike come from different tables or passages of the source.

Legend:
[1] = system: symmetric dimethylation of arginine (SDMA) of PRMT5 substrates in MCF-7 cells; assay: PRMT5 Cell Target Engagement (TE) Assay; type: cell-based; settings: Homo sapiens, MCF7, 72 h, treated for 3 days, nuclear SDMA by high content imaging, top concentration 10000 nM
Text: The PRMT5 TE assay is a biomarker assay for identifying compounds that inhibit symmetric dimethylation of arginine (SDMA) of PRMT5 substrates. The following substrates have been reported for PRMT5: Histone H2A and H4 R3, Histone H3 R2, Histone H3 R8, spliceosome Sm proteins, ribosomal protein RPS10, p53, FEN1, nucleoplasmin, nucleolin, EGFR and EBNA. The assay will focus on detecting symmetrically dimethylated nuclear proteins using high content imaging technology. Detection of the expression of symmetrically dimethylated nuclear proteins is through a mixture of primary rabbit monoclonal antibodies to SDMA (CST 13222), which in turn recognized by an Alexafluor 488 dye-conjugated anti-rabbit IgG secondary antibody. The IN Cell Analyzer 2200 or Opera-Phenix measures nuclear Alexafluor 488 fluorescent dye intensity that is directly related to the level of expression of symmetrically dimethylated nuclear proteins at the single cell level. Nuclear AF488 dye intensities are compared to the mean value for DMSO treated cells (MIN) to report percent of inhibition for each compound-treated well.
In this assay, the cell potency (EC50) of each compound was determined from a ten point (1:3 serial dilution; top compound concentration of 10000 nM) titration curve using the following outlined procedure. Each well of a BD falcon collagen coated black/clear bottom 384-well plate was seeded with 4000 MCF-7 cells in 30 μl media and allowed to attach for 5 hours. Media is ATCC-formulated Eagle's Minimum Essential Medium, Catalog No. 30-2003. The following components were added to the base medium: 0.01 mg/mL human recombinant insulin; fetal bovine serum to a final concentration of 10%. Additional 30 µl of media containing 2× compounds were added to each well. Cells were treated for 3 days in 37° C. CO2 incubator. On day 3, cells were fixed with Cytofix, permeabilized with 0.4% Triton-X-100/Cytofix, and washed with D-PBS without Ca/Mg. Cells were blocked with Licor Odessey blocking reagent for 1 hour at room temperature, followed by incubation with anti-SDMA (1:1000) antibody at 4° C. overnight. 1° antibody was removed, followed by three washings with DPBS without Ca/Mg and 0.05% Tween20. Hoechst (5 μg/mL), Cell Mask deep stain (1:2000) and Alexa488-conjugated goat anti-rabbit IgG (2 μg/mL) was added for 1 hour at room temperature. A final washing step (three washes) was performed before sealing plate for imaging on In Cell Analyzer 2200 or Opera-Phenix. Images from analyzer were uploaded to Columbus for image analysis. IC50 values were determined by 4 parameters robust fit of percent fluorescence units vs. (Log 10) compound concentrations.

[2] = molecular target: T1, Full-length (FL)-PRMT5-MEP50 enzyme complex (Homo sapiens, UniProt O14744); assay: PRMT5-MEP50 Enzyme Methylation Assay; type: biochemical; settings: 1.0 nM PRMT5-MEP50, 75 nM biotinylated peptide, 15 μM SAM
T1 construct: Full-length (FL)-PRMT5-MEP50 enzyme complex (recombinant proteins from baculovirus-transfected Sf21 cells: FL-PRMT5; MW=73837 kDa and FL-MEP50; MW=38614); made in house; host or cells: baculovirus-transfected Sf21 insect cells
T1 sequence (O14744 whole entry): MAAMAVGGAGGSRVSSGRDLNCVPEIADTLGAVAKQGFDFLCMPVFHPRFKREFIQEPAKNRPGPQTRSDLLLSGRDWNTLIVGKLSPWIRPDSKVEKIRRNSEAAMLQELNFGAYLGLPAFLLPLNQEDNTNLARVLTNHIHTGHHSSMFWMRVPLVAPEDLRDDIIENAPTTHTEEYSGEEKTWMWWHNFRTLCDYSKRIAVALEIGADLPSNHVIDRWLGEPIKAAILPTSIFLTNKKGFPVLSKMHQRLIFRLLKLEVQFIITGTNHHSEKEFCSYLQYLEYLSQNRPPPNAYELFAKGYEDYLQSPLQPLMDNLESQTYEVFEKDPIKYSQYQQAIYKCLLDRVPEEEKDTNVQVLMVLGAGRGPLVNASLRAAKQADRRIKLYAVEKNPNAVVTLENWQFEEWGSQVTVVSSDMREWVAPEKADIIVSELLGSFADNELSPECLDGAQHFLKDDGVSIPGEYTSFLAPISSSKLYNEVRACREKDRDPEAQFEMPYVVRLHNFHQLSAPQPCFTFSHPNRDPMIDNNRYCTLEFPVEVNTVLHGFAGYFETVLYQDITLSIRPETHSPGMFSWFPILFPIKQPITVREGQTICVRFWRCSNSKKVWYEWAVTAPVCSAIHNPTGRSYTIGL
T1 sequence (Q9BQA1 whole entry partner): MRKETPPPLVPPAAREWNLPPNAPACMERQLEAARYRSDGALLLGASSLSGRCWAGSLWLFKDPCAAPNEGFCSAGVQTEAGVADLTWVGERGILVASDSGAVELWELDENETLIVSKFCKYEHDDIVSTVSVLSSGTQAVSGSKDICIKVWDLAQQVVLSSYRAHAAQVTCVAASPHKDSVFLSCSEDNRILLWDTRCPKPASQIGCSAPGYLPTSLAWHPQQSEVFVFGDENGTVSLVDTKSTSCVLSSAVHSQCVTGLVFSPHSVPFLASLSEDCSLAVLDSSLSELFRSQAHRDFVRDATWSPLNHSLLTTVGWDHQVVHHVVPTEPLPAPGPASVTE
Procedure, shortened: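 Compound was pre-incubated 60 min at 37°C with 1.0 nM enzyme and 15 μM SAM (final) in 50 mM Bicine pH 8.0, then 75 nM biotinylated H4R3(Me1) peptide was added and reacted 150 min; twenty-point 1:2 titration from 100000 nM, 1% DMSO. Formic acid quench; SAMDI mass spectrometry measured Me1-to-Me2 conversion, EC50 by 4- or 7-parameter regression.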

[3] = one EC50: 4 parameters single site sigmoidal model, EC50 1: first value of 7 parameters biphasic model, read-out: Enzyme Methylation Assay (EC50 or EC50 1)
[4] = second EC50 of 7 parameters biphasic model, read-out: Enzyme Methylation Assay (EC50 2)

Row | SMILES | EC50 [1] | EC50 [2, 3] | EC50 [2, 4]
1 | Cc1cn([C@@H]2O[C@@H]3[C@@H](Oc4ccc5cc(Cl)c(N)nc5c4)CC[C@]3(O)[C@H]2O)c2ncnc(N)c12 [Example 64, (2R,3R,3aS,6S,6aR)-6-((2-amino-3-chloroquinolin-7-yl)oxy)-2-(4-amino-5-methyl-7H-pyrrolo[2,3-d]pyrimidin-7-yl)hexahydro-3aH-cyclopenta[b]furan-3,3a-diol 2,2,2-trifluoroacetate] | 16.2 nM | 0.3 nM | 
2 | Nc1nc2cc(O[C@H]3CC[C@@]4(O)[C@@H]3O[C@@H](n3ccc5c(C(F)F)ncnc53)[C@@H]4O)ccc2cc1Br [Example 79, (2R,3R,3aS,6S,6aR)-6-((2-amino-3-bromoquinolin-7-yl)oxy)-2-(4-(difluoromethyl)-7H-pyrrolo[2,3-d]pyrimidin-7-yl)hexahydro-3aH-cyclopenta[b]furan-3,3a-diol] | 52.5 nM | 2.9 nM | 
3 | CCc1ncnc2c1ccn2[C@@H]1O[C@@H]2[C@@H](Oc3ccc4cc(Br)c(N)nc4c3)CC[C@]2(O)[C@H]1O [Example 82, 2,2,2-trifluoroacetate] | 87.2 nM | 0.7 nM | 75.9 nM
4 | Nc1ncc2ccn([C@@H]3O[C@@H]4[C@@H](Oc5ccc6cc(Br)c(N)nc6c5)CC[C@]4(O)[C@H]3O)c2n1 [compound 46, (2R,3R,3aS,6S,6aR)-6-((2-amino-3-bromoquinolin-7-yl)oxy)-2-(2-amino-7H-pyrrolo[2,3-d]pyrimidin-7-yl)hexahydro-3aH-cyclopenta[b]furan-3,3a-diol dihydrochloride] | 16.8 nM | 0.5 nM | 
5 | CCc1cn([C@@H]2O[C@@H]3[C@@H](Oc4ccc5cc(Br)c(N)nc5c4)CC[C@]3(O)[C@H]2O)c2ncnc(N)c12 [Example 69, (2R,3R,3aS,6S,6aR)-6-((2-amino-3-bromoquinolin-7-yl)oxy)-2-(4-amino-5-ethyl-7H-pyrrolo[2,3-d]pyrimidin-7-yl)hexahydro-3aH-cyclopenta[b]furan-3,3a-diol] | 103 nM | 1.1 nM | 
6 | Cc1cn([C@@H]2O[C@@H]3[C@@H](Oc4ccc5cc(F)c(N)nc5c4)CC[C@]3(O)[C@H]2O)c2ncnc(N)c12 [Example 65, (2R,3R,3aS,6S,6aR)-6-((2-amino-3-fluoroquinolin-7-yl)oxy)-2-(4-amino-5-methyl-7H-pyrrolo[2,3-d]pyrimidin-7-yl)hexahydro-3aH-cyclopenta[b]furan-3,3a-diol 2,2,2-trifluoroacetate] | 179 nM | 0.2 nM | 200 nM
7 | Nc1nc2cc(CC[C@]3(CF)C[C@@H](n4ccc5c(N)ncnc54)[C@H](O)[C@@H]3O)ccc2cc1Br [Example 102, (1S,2R,5R)-3-(2-(2-amino-3-bromoquinolin-7-yl)ethyl)-5-(4-amino-7H-pyrrolo[2,3-d]pyrimidin-7-yl)-3-(fluoromethyl)cyclopentane-1,2-diol] | 2 nM | 0.3 nM | 
8 | Nc1nc2cc(C[C@@H]3CC[C@@]4(O)[C@@H]3O[C@@H](n3cc(C5CC5)c5c(N)ncnc53)[C@@H]4O)ccc2cc1F [Example 50, (2R,3R,3aS,6S,6aR)-2-(4-amino-5-cyclopropyl-7H-pyrrolo[2,3-d]pyrimidin-7-yl)-6-[(2-amino-3-fluoroquinolin-7-yl)methyl]hexahydro-3aH-cyclopenta[b]furan-3,3a-diol] | 0.7 nM | 0.3 nM | 
